Square brackets hold non-standard residues; d marks the D form. Ends that are not written are not given here. Peptide text beside a SMILES is read from it. Nle = CCCC[C@H](N)C(=O)O

The subject of this assay is cells of rat pituitary glands. As to the kind of experiment: in vitro assay of growth hormone release from cultured rat pituitary cells (ir GH by radioimmunoassay). The settings on record: potency for GH release relative to standard hGRF(1-40)-OH = 100%; equimolar concentrations; incubation 3 to 4 hours. The format is cell-based. Here is the method: To determine the relative effectiveness of certain representative synthetic peptides to promote the release of growth hormone, in vitro assays are carried out using synthetic hpGRF(1-40)-OH as a standard in side-by-side comparison with equimolar concentrations of the representative analogs which have been synthesized. Cultures are used which include cells of rat pituitary glands removed some three to five days previously. Such cultures are considered optimal for the secretion of growth hormone and are used for the comparative testing, in the general manner described in Vale et al. Endocrinology, 91, 562-572 (1972) and as more particularly described in Vale et al. Endocrinology, 112, 1553-1555 (1983). Incubation with the substance to be tested is carried out for 3 to 4 hours, and aliquots of the culture medium are removed and processed to measure their contents in immunoreactive GH(ir GH) by a well-characterized radioimmunoassay.
As for `CCCC[C@H](NC(=O)[C@@H](NC(=O)[C@H](CC(=O)O)NC(=O)[C@H](CCC(N)=O)NC(=O)[C@H](CC(C)C)NC(=O)[C@H](CC(C)C)NC(=O)[C@H](CCCCN)NC(=O)[C@H](CCCNC(=N)N)NC(=O)[C@H](C)NC(=O)[C@H](CO)NC(=O)[C@H](CC(C)C)NC(=O)[C@H](CCC(N)=O)NC(=O)CNC(=O)[C@H](CC(C)C)NC(=O)[C@@H](NC(=O)[C@H](CCCCN)NC(=O)[C@H](CCCNC(=N)N)NC(=O)[C@H](Cc1ccc(O)cc1)NC(=O)[C@H](CO)NC(=O)[C@H](CC(N)=O)NC(=O)[C@@H](NC(=O)[C@H](Cc1ccccc1)NC(=O)[C@@H](NC(=O)[C@H](C)NC(=O)[C@H](CC(=O)O)NC(=O)[C@@H](C)NC(=O)[C@@H](N)Cc1ccc(O)cc1)[C@@H](C)CC)[C@@H](C)O)C(C)C)[C@@H](C)CC)C(=O)N[C@@H](CO)C(=O)N[C@@H](CCCNC(=N)N)C(N)=O` [[D-Ala^2, Nle^27]-hGRF(1-29)-NH2], the Comparison % is 429%.

Compound “hGRF(1-40)-OH (YADAIFTNSYRKVLGQLSARKLLQDIMSRQQGESNQERGA-OH; UniProt P01286 32-71, looked up, fragment) [synthetic human pancreatic (tumor) GH releasing factor (1-40) free acid, used as standard for this test, reference compound]” came in with a Comparison % of 100%. The compound `CCCC[C@H](NC(=O)[C@@H](NC(=O)[C@H](CCC(=O)O)NC(=O)[C@H](Cc1c[nH]cn1)NC(=O)[C@H](CC(C)C)NC(=O)[C@H](CC(C)C)NC(=O)[C@H](CCCCN)NC(=O)[C@H](CCCNC(=N)N)NC(=O)[C@H](C)NC(=O)[C@H](Cc1ccc(O)cc1)NC(=O)[C@H](CC(C)C)NC(=O)[C@H](CCC(N)=O)NC(=O)CNC(=O)[C@H](CC(C)C)NC(=O)[C@@H](NC(=O)[C@H](CCCNC(=N)N)NC(=O)[C@H](CCCNC(=N)N)NC(=O)[C@H](Cc1ccc(O)cc1)NC(=O)[C@H](CO)NC(=O)[C@H](CO)NC(=O)[C@@H](NC(=O)[C@H](Cc1ccccc1)NC(=O)[C@@H](NC(=O)[C@H](C)NC(=O)[C@H](CC(=O)O)NC(=O)[C@H](C)NC(=O)[C@@H](N)Cc1c[nH]cn1)[C@@H](C)CC)[C@@H](C)O)[C@@H](C)CC)[C@@H](C)CC)C(=O)N[C@H](CC(N)=O)C(=O)N[C@@H](CCCNC(=N)N)C(N)=O` [[Nle^27, D-Asn^28]-rGRF(1-29)-NH2] (H-HADAIFTSSYRRILGQLYARKLLHEI[Nle][dN]R-NH2) came in with a Comparison % of 321%. Compound `CCCC[C@H](NC(=O)[C@@H](NC(=O)[C@H](CC(=O)O)NC(=O)[C@H](CCC(N)=O)NC(=O)[C@H](CC(C)C)NC(=O)[C@H](CC(C)C)NC(=O)[C@H](CCCCN)NC(=O)[C@H](CCCNC(=N)N)NC(=O)[C@H](C)NC(=O)[C@H](CO)NC(=O)[C@H](CC(C)C)NC(=O)[C@H](CCC(N)=O)NC(=O)CNC(=O)[C@H](CC(C)C)NC(=O)[C@@H](NC(=O)[C@H](CCCCN)NC(=O)[C@H](CCCNC(=N)N)NC(=O)[C@H](Cc1ccc(O)cc1)NC(=O)[C@H](CO)NC(=O)[C@H](CC(N)=O)NC(=O)[C@@H](NC(=O)[C@H](Cc1ccccc1)NC(=O)[C@@H](NC(=O)[C@H](C)NC(=O)[C@H](CC(=O)O)NC(=O)[C@@H](C)NC(=O)[C@@H](N)Cc1ccc(O)cc1)[C@@H](C)CC)[C@@H](C)O)C(C)C)[C@@H](C)CC)C(=O)N[C@@H](CC(N)=O)C(=O)N[C@@H](CCCNC(=N)N)C(=O)NCC` [[D-Ala^2, Nle^27, Asn^28]-hGRF(1-29)-NHEt] (H-Y[dA]DAIFTNSYRKVLGQLSARKLLQDI[Nle]NR-NHEt) displayed a Comparison % of 1714%.

Turning to `CCCC[C@H](NC(=O)[C@@H](NC(=O)[C@H](CC(=O)O)NC(=O)[C@H](CCC(N)=O)NC(=O)[C@H](CC(C)C)NC(=O)[C@H](CC(C)C)NC(=O)[C@H](CCCCN)NC(=O)[C@H](CCCNC(=N)N)NC(=O)[C@H](C)NC(=O)[C@H](CO)NC(=O)[C@H](CC(C)C)NC(=O)[C@H](CCC(N)=O)NC(=O)CNC(=O)[C@H](CC(C)C)NC(=O)[C@@H](NC(=O)[C@H](CCCCN)NC(=O)[C@H](CCCNC(=N)N)NC(=O)[C@H](Cc1ccc(O)cc1)NC(=O)[C@H](CO)NC(=O)[C@H](CC(N)=O)NC(=O)[C@@H](NC(=O)[C@H](Cc1ccccc1)NC(=O)[C@@H](NC(=O)[C@H](C)NC(=O)[C@H](CC(=O)O)NC(=O)[C@H](C)NC(=O)[C@@H](N)Cc1ccc(O)cc1)[C@@H](C)CC)[C@@H](C)O)C(C)C)[C@@H](C)CC)C(=O)N[C@@H](CO)C(=O)N[C@@H](CCCNC(=N)N)C(N)=O` [[Nle^27]-hGRF(1-29)-NH2], the Comparison % came out at 238%.

Source of the values: patent US4728726A, “GRF analogs IIIb” (The Salk Institute for Biological Studies, priority 1986, dated 1988).
